In brackets after ≈: the same amount, converted by molar mass.

Test in all cases: ≥ marks a high value that may be exact or a test limit, other limits are often not marked, values filed in µg/mL are converted to µM
For experiment [1], the system named is Pseudomonas aeruginosa KCTC 1637.
The test system of experiment [2] is Streptococcus pyogenes KCTC 3096.
The subject of experiment [3] is Aspergillus fumigatus KCTC 4165.
In experiment [4] the test system is Bacillus subtilis KCTC 1918.
Experiment [5] concerns Staphylococcus aureus KCTC 1621.
In experiment [6] the test system is Salmonella typhimurium KCTC 1926.
In experiment [7] the test system is Escherichia coli KCTC 1682.
Experiment [8] relates to Candida albicans TIMM 1768.

In general, MIC refers to the lowest concentration found to suppress growth. On to `CC[C@H](C)[C@H](NC(=O)[C@H](CCCCN)NC(=O)[C@H](CCCCN)NC(=O)[C@H](CC(C)C)NC(=O)[C@H](CCCCN)NC(=O)[C@H](CCC(=O)O)NC(=O)CN)C(=O)NCC(=O)N[C@@H](CCC(N)=O)C(=O)N[C@@H](CCCCN)C(=O)N[C@H](C(=O)N[C@@H](CCCCN)C(=O)N[C@@H](CC(N)=O)C(=O)N[C@@H](Cc1ccccc1)C(=O)N[C@@H](Cc1ccccc1)C(=O)N[C@@H](CCCCN)C(=O)N[C@@H](CCCCN)C(=O)N[C@@H](CC(C)C)C(=O)O)[C@@H](C)CC` [GEKLKKIGQKIKNFFKKL], for which the MIC came out at 3.12 µM (≈ 6.7 µg/mL) in experiment [1]; 12.5 µM (≈ 26.8 µg/mL) in experiment [2]; 25 µM (≈ 53.7 µg/mL) in experiment [3]; 6.25 µM (≈ 13.4 µg/mL) in experiment [4]; 6.25 µM (≈ 13.4 µg/mL) in experiment [5]; 6.25 µM (≈ 13.4 µg/mL) in experiment [6]. Besides, the values for the MIC in experiment [7] and in experiment [8] were 6.25 µM (≈ 13.4 µg/mL) and 25 µM (≈ 53.7 µg/mL), respectively.
